Legend:
switchgrass calluses [1] = assay: Sensitivity of switchgrass calluses to drugs: callus growth on PVC medium; assay type: cell-based
Description: (§1) Skins of mature seeds of switchgrass variety “Alamo” were removed by 60% (v/v) sulfate treatment, and a fungicide for seeds was used for sterilization. […] The seeds were cultured for a few months in the dark at 28° C. Then, grown calluses were classified as independent strains for each derived seed. Strains in which a compact callus expected to have a regeneration ability was grown were selected and cultured.
(§2) In order to develop a new screening method that is appropriate for plastid transformation, the calluses of the regeneration strains prepared in the above <1> were used to examine sensitivity of wild type plant cells to various drugs.

switchgrass calluses [2] = assay: Sensitivity of switchgrass calluses to drugs: plant (shoot) regeneration on PVS medium; assay type: cell-based; details: switchgrass callus on PVS medium
Description: as §1, §2

[3] = test system: wild type of rice variety Nipponbare; details: MS-NK medium containing sodium nitrite 400 mg/L
Description: PSR1 genes were introduced into plastids of rice variety Nipponbare and rice variety Koshihikari and transformants were screened using sodium nitrite. Specifically, it was performed as follows. An MS-NK medium (Nishimura et al., Nature Protocols, 2006, Vol. 1, p. 2796-2802) used as a regeneration medium contained nitrate nitrogen, originally.

[4] = test system: wild type switchgrass calluses; details: 28° C.
Description: In the sodium nitrite screening, in order to determine a screening concentration more effectively, wild type switchgrasses were cultured under sodium nitrite conditions of different concentrations, and the sensitivity of wild type cells to sodium nitrite was examined.
Specifically, a mass of 14 switchgrass calluses remained for each plate on PVC media and PVS media containing sodium nitrite having a concentration of 0, 0.25, 0.5, 0.6, 0.7, 0.8, 0.9, or 1.0 g/L, and three plates of each of which were prepared for each concentration condition. The PVC media were cultured in the dark at 28° C. and the PVS media were cultured under light at 28° C. for 4 weeks. After culture, the number of grown calluses was measured in the PVC media, and the number of calluses from which plants were regenerated was measured in the PVS media. The growth rate and the regeneration rate were calculated.

[5] = PVC media, dark, 4 weeks (FIG. 2A)
[6] = PVS media, light, 4 weeks (FIG. 2B)

| Compound | Callus growth: supression concentration (switchgrass calluses [1]) | Shoot regeneration: supression concentration (switchgrass calluses [2]) | further results |
| --- | --- | --- | --- |
| C[C@@H](Oc1ccc(Oc2ncc(Cl)cc2F)cc1)C(=O)O [Clodinafop] | (>1.0 μM) | – | – |
| O=C(N[C@H](CO)[C@H](O)c1ccc([N+](=O)[O-])cc1)C(Cl)Cl [Cloramphenicol] | (>30 mg/L) | (>15 mg/L) | – |
| CCCC(=NOCC)C1=C(O)CC(C2CCCSC2)CC1=O (centres unmarked) [Cycloxydim] | (>1.5 μM) | (>0.1 μM) | – |
| CCCCOC(=O)C(C)Oc1ccc(Oc2ccc(C(F)(F)F)cn2)cc1 (centres unmarked) [Fluazifop-butyl] | (>1.0 μM) | (>0.1 μM) | – |
| CN[C@@H]1[C@@H](O)[C@@H](O[C@@H]2[C@@H](O)[C@H](O[C@H]3O[C@H]([C@@H](C)O)[C@@H](O)[C@H](O)[C@H]3N)[C@@H](N)C[C@H]2N)OC[C@]1(C)O [G418] | (>25 mg/L) | (>25 mg/L) | – |
| O=C(O)CNCP(=O)(O)O [Glyphosate] | (>0.1 mM) | (>0.1 mM) | – |
| CC(Oc1ccc(Oc2ncc(C(F)(F)F)cc2Cl)cc1)C(=O)O (centres unmarked) [Haloxyfop] | (>1.0 μM) | – | – |
| NC[C@H]1O[C@H](O[C@H]2[C@H](O)[C@@H](O[C@H]3O[C@H](CO)[C@@H](O)[C@H](N)[C@H]3O)[C@H](N)C[C@@H]2N)[C@H](O)[C@@H](O)[C@@H]1O [Kanamycin] | (>200 mg/L) | (>100 mg/L) | – |
| C[n+]1ccc(-c2cc[n+](C)cc2)cc1 [Methylviologen] | (>1.0 μM) | (>1.0 μM) | – |
| CCc1cc(C)cc(CC)c1-c1c(OC(=O)C(C)(C)C)n2n(c1=O)CCOCC2 [Pinoxaden] | (>1.0 μM) | – | – |
| O=NO [Sodium nitrite] | (>800 mg/L) | (>800 mg/L) | Regeneration ability of wild type rice [3]: had a regeneration ability; Concentration at which callus growth was completely suppressed [4, 5]: ≥ 0.9 g/L; Concentration at which callus growth was sharply reduced [4, 5]: 0.7 g/L; Concentration at which plant regeneration was completely suppressed [4, 6]: 1.0 g/L; Concentration at which plant regeneration was sharply reduced [4, 6]: 0.8 g/L |
| [H]/N=C(/N)N[C@H]1[C@H](O)[C@@H](O)[C@H](O[C@@H]2O[C@@H](C)[C@](O)(C=O)[C@H]2O[C@@H]2O[C@@H](CO)[C@H](O)[C@@H](O)[C@@H]2NC)[C@@H](N/C(N)=N\[H])[C@@H]1O [Streptomycin] | – | (>400 mg/L) | – |
| CN(C)[C@@H]1C(O)=C(C(N)=O)C(=O)[C@@]2(O)C(O)=C3C(=O)c4c(O)cccc4[C@@](C)(O)[C@H]3C[C@@H]12 [Tetracycline] | (>40 mg/L) | (>60 mg/L) | – |
| Bleocin | (>25 mg/L) | (>10 mg/L) | – |

Reference: patent US20180216124A1, “METHOD OF PRODUCING PLASTID TRANSFORMANTS” (HONDA MOTOR CO., LTD., priority 2015, published 2018)
